Measurements from patent US20050112573A1, “Method of detecting toxic substance” (priority 2001, published 2005).

Test system: yeast genes (level of expressed mRNA)
Test: DNA chip analysis of expressed mRNA of yeast genes after 2 h culture with a toxic chemical substance
Assay type: cell-based, Saccharomyces cerevisiae S288C
Summary of the method: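 Values are treated-to-control fluorescence ratios from a whole-yeast-genome DNA chip (65° C, over 12 h hybridization) using Cy3/Cy5-labelled cDNA from mRNA. Log-phase S288C cells in YPD at 25° C were exposed 2 h to a toxicant at sublethal, growth-inhibiting concentration.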

Substance: manganese ethylenebis(dithiocarbamate) [(8)]
- The level of expressed mRNA in the presence of chemical substance/ (yeast gene YFL010C, ratio to control without chemical substance, 2 h culture): 1.0
- The level of expressed mRNA in the presence of chemical substance/ (yeast gene YFL024C, ratio to control without chemical substance, 2 h culture): 0.9
- The level of expressed mRNA in the presence of chemical substance/The level of expressed mRNA in the absence of chemical substance (yeast gene YFL028C): 1.5
- The level of expressed mRNA in the presence of chemical substance/ (yeast gene YFL032W, ratio to control without chemical substance, 2 h culture): 0.4
- The level of expressed mRNA in the presence of chemical substance/The level of expressed mRNA in the absence of chemical substance (yeast gene YFL043C): 1.0
- The level of expressed mRNA in the presence of chemical substance/in the absence of chemical substance (yeast gene YGL035C): 1.3
- The level of expressed mRNA in the presence of chemical substance/ (yeast gene YGL037C, ratio to control without chemical substance, 2 h culture): 1.2
- The level of expressed mRNA in the presence of chemical substance/ (yeast gene YGL047W, ratio to control without chemical substance, 2 h culture): 1.1
- The level of expressed mRNA in the presence of chemical substance/ (yeast gene YGL053W, ratio to control without chemical substance, 2 h culture): 1.2
- The level of expressed mRNA in the presence of chemical substance/ (yeast gene YGL121C, ratio to control without chemical substance, 2 h culture): 3.0
- The level of expressed mRNA in the presence of chemical substance/The level of expressed mRNA in the absence of chemical substance (yeast gene YGL158W): 1.3
- The level of expressed mRNA in the presence of chemical substance/ (yeast gene YGL199C, ratio to control without chemical substance, 2 h culture): 0.7
- The level of expressed mRNA in the presence of chemical substance/The level of expressed mRNA in the absence of chemical substance (yeast gene YGL229C): 0.7
- The level of expressed mRNA in the presence of chemical substance/ (yeast gene YGR101W, ratio to control without chemical substance, 2 h culture): 0.8
- The level of expressed mRNA in the presence of chemical substance/ (yeast gene YGR110W, ratio to control without chemical substance, 2 h culture): 1.5
- The level of expressed mRNA in the presence of chemical substance/ (yeast gene YGR130C, ratio to control without chemical substance, 2 h culture): 0.9
- The level of expressed mRNA in the presence of chemical substance/The level of expressed mRNA in the absence of chemical substance (yeast gene YGR136W): 1.3
- The level of expressed mRNA in the presence of chemical substance/ (yeast gene YGR154C, ratio to control without chemical substance, 2 h culture): 1.7
- The level of expressed mRNA in the presence of chemical substance/The level of expressed mRNA in the absence of chemical substance (yeast gene YGR189C): 1.0
- The level of expressed mRNA in the presence of chemical substance/The level of expressed mRNA in the absence of chemical substance (yeast gene YGR213C): 2.0
- The level of expressed mRNA in the presence of chemical substance/ (yeast gene YGR221C, ratio to control without chemical substance, 2 h culture): 1.1
- The level of expressed mRNA in the presence of chemical substance/The level of expressed mRNA in the absence of chemical substance (yeast gene YGR257C): 1.0
- The level of expressed mRNA in the presence of chemical substance/in the absence of chemical substance (yeast gene YGR287C): 1.3
- The level of expressed mRNA in the presence of chemical substance/The level of expressed mRNA in the absence of chemical substance (yeast gene YHR004C): 0.9
- The level of expressed mRNA in the presence of chemical substance/The level of expressed mRNA in the absence of chemical substance (yeast gene YHR071W): 1.7
- The level of expressed mRNA in the presence of chemical substance/ (yeast gene YHR138C, ratio to control without chemical substance, 2 h culture): 1.4
- The level of expressed mRNA in the presence of chemical substance/The level of expressed mRNA in the absence of chemical substance (yeast gene YHR139C): 1.3
- The level of expressed mRNA in the presence of chemical substance/The level of expressed mRNA in the absence of chemical substance (yeast gene YHR142W): 1.3
- The level of expressed mRNA in the presence of chemical substance/ (yeast gene YHR199C, ratio to control without chemical substance, 2 h culture): 1.0
- The level of expressed mRNA in the presence of chemical substance/ (yeast gene YIL023C, ratio to control without chemical): 0.7
- The level of expressed mRNA in the presence of chemical substance/ (yeast gene YIL041W, ratio to control without chemical substance, 2 h culture): 0.9
- The level of expressed mRNA in the presence of chemical substance/ (yeast gene YIL087C, ratio to control without chemical substance, 2 h culture): 1.1
- The level of expressed mRNA in the presence of chemical substance/The level of expressed mRNA in the absence of chemical substance (yeast gene YIL123W): 0.6
- The level of expressed mRNA in the presence of chemical substance/The level of expressed mRNA in the absence of chemical substance (yeast gene YIL140W): 0.7
- The level of expressed mRNA in the presence of chemical substance/ (yeast gene YJL057C, ratio to control without chemical substance, 2 h culture): 1.5
- The level of expressed mRNA in the presence of chemical substance/ (yeast gene YJL066C, ratio to control without chemical substance, 2 h culture): 0.8
- The level of expressed mRNA in the presence of chemical substance/in the absence of chemical substance (yeast gene YJL070C): 1.1
- The level of expressed mRNA in the presence of chemical substance/The level of expressed mRNA in the absence of chemical substance (yeast gene YJL073W): 1.0
- The level of expressed mRNA in the presence of chemical substance/ (yeast gene YJL082W, ratio to control without chemical substance, 2 h culture): 0.9
- The level of expressed mRNA in the presence of chemical substance/The level of expressed mRNA in the absence of chemical substance (yeast gene YJL089W): 1.1
- The level of expressed mRNA in the presence of chemical substance/The level of expressed mRNA in the absence of chemical substance (yeast gene YJL116C): 1.8
- The level of expressed mRNA in the presence of chemical substance/ (yeast gene YJL151C, ratio to control without chemical substance, 2 h culture): 0.8
- The level of expressed mRNA in the presence of chemical substance/ (yeast gene YJL152W, ratio to control without chemical substance, 2 h culture): 0.7
- The level of expressed mRNA in the presence of chemical substance/ (yeast gene YJL161W, ratio to control without chemical substance, 2 h culture): 1.4
- The level of expressed mRNA in the presence of chemical substance/in the absence of chemical substance (yeast gene YJL167W): 1.5
- The level of expressed mRNA in the presence of chemical substance/ (yeast gene YJL171C, ratio to control without chemical substance, 2 h culture): 0.9
- The level of expressed mRNA in the presence of chemical substance/in the absence of chemical substance (yeast gene YJL216C): 1.9
- The level of expressed mRNA in the presence of chemical substance/The level of expressed mRNA in the absence of chemical substance (yeast gene YJR004C): 0.4
- The level of expressed mRNA in the presence of chemical substance/ (yeast gene YJR008W, ratio to control without chemical substance, 2 h culture): 1.1
- The level of expressed mRNA in the presence of chemical substance/ (yeast gene YJR054W, ratio to control without chemical): 1.6
- The level of expressed mRNA in the presence of chemical substance/The level of expressed mRNA in the absence of chemical substance (yeast gene YJR086W): 1.1
- The level of expressed mRNA in the presence of chemical substance/The level of expressed mRNA in the absence of chemical substance (yeast gene YKL008C): 1.2
- The level of expressed mRNA in the presence of chemical substance/The level of expressed mRNA in the absence of chemical substance (yeast gene YKL013C): 0.9
- The level of expressed mRNA in the presence of chemical substance/The level of expressed mRNA in the absence of chemical substance (yeast gene YKL039W): 0.8
- The level of expressed mRNA in the presence of chemical substance/The level of expressed mRNA in the absence of chemical substance (yeast gene YKL041W): 1.6
- The level of expressed mRNA in the presence of chemical substance/ (yeast gene YKL071W, ratio to control without chemical substance, 2 h culture): 24.7
